Measurements: patent publication US9340559B2, “Proteasome inhibitor delanzomib for use in the treatment of lupus” (Cephalon, Inc., priority 2011, dated 2016)

Experiments:
Type in all cases: in vivo, mouse
[1] = tested on: MRL/lpr mice; experiment: Urinalysis: total urine protein (proteinuria), MRL/lpr mice
Description: (§1) Urine samples are acid precipitated for total protein recovery and analysis. Samples for which enough urine remained are used for Uristix® leukouria analysis. Briefly, a standard protein solution is prepared from normal mouse sera and is used as a standard for mouse urinary protein assay by turbidity. Standard preparation is as follows: 0, 5, 10, 15, 20, 30, 40, and 50 μL of a 4 mg/mL mouse sera standard protein solution as provided in the kit are added in duplicate into two columns. PBS is added to individual wells to adjust the final volume to 50 μL. For urine sample preparation, urine samples are centrifuged at 9880×g for 3 minutes using a tabletop micro-centrifuge. Urine supernatant (1-50 μL) is added in duplicate. PBS is added to adjust the volume to 50 μL total. For the turbidity assay: 25 μL of 0.1 N HCl is added into blank columns and 250 μL of 3% sulfosalicyclic acid into the test columns. The microplate is incubated for 10 minutes at RT and plates are read using an ELISA reader with single beam at 450 nm. For the Uristix® strip assay, strips are laid out and labeled. Twenty microliters of urine are placed onto each test strip square and incubated for at least 30 seconds before the result is recorded. For all total urine analysis plate-based assays, values below the limit of detection set by the lowest point along the standard or set by the manufacturer are considered out of range and are not estimated, but assumed the lowest point along the standard curve for that particular assay.

[2] = tested on: MRL/lpr mice; experiment: Urinalysis: urine leukocytes (leukouria), Uristix, MRL/lpr mice
Description: as §1

[3] = tested on: NZM mice; experiment: Urinalysis: total urine protein (proteinuria), NZM mice (Example 2)
[4] = tested on: NZM mice; experiment: Renal histopathology scoring (kidney IC-GN), NZM mice (Example 2); details: for decrease in renal histopathology score over several parameters vs vehicle: mouse, in vivo
Description: For histological analyses, the left kidney from each animal is removed and fixed in 10% buffered neutral formalin (EMD) for 48 hours on an orbital rocker at 25° C., then washed overnight with running dH2O and stored in 70% ethanol at 4° C. until ready to be processed. Kidney stains used for histological analyses included hematoxylin and eosin (H&E), Periodic Acid Schiff (PAS) and Trichrome stains (Wistar Institute, Philadelphia, Pa.). All 3 stained sections are used by the pathologist for scoring purposes. All histological scoring is performed blinded and by an independent board certified veterinary medical pathologist (Julie Engiles, VMD, DACVP). Multiple stains are used to determine score values. Images in FIG. 39 show worst affected area of section selected blindly by the pathologist.
Kidney IC-GN Scoring Method (Smith, Dong et al. 2007):
1. Glomerular cellularity—Score 1-5: Null, low, moderate, high, severe
2. Glomerular necrosis—Score 1-5: Null, low, moderate, high, severe
3. Glomerulosclerosis—Score 1-5: Null, low, moderate, high, severe
4. Interstitial infiltration—Score 1-5: Null, low, moderate, high, severe
5. Tubular atrophy—Score 1-5: Null, low, moderate, high, severe
6. Interstitial fibrosis—Score 1-5: Null, low, moderate, high, severe
7. Vasculitis—Score 1-5: Null, low, moderate, high, severe
Specific Pathologist Definitions: • Necrosis is defined by the presence of nuclear debris/pyknosis within the glomerular tuft indicative of “necrosis.” In many samples, this is a very mild, rare finding within only a very few segments of the glomerular tuft. Also consider effacement of the glomerular tuft by PAS positive, Trichrome negative material necrosis. • Glomerular sclerosis is defined by increased fibroplasia or fibrosis within the glomerular tuft or capsule. […] Most of the vascular changes are mild and could be considered “arteriosclerosis” characterized by proliferation of the smooth muscle cells, and hyalinization of the extracellular matrix. This change may reflect hypertension secondary to glomerular pathology. In very few animals is there overt “vasculitis.” Most inflammatory changes are within the walls of the blood vessels, with little to no damage to the endothelium, and no overt hemorrhage/fibrin leakage. Many also have perivascular rims of fibroblasts.

[5] = COMPOUND A once and twice weekly

CC(C)C[C@H](NC(=O)[C@H](Cc1ccccc1)NC(=O)c1cnccn1)B(O)O [bortezomib, reference compound]
Urine AUC proteinuria, percent change vs vehicle ([1]; G4: 0.5 mg/kg iv, 1× wk): −55%
Urine AUC proteinuria, percent change vs vehicle ([1]; G5: 0.3 mg/kg iv, 2× wk): −50%
proteinuria decrease relative to vehicle ([1]; treated weekly with bortezomib): 55%
Urine AUC leukocytes, percent change vs vehicle ([2]; G4: 0.5 mg/kg iv, 1× wk): −78%
Urine AUC leukocytes, percent change vs vehicle ([2]; G5: 0.3 mg/kg iv, 2× wk): −70%
Urine proteinuria AUC, percent change vs vehicle ([3]; G3 0.3 mg/kg ip, 1× wk): 30%
Urine proteinuria AUC, percent change vs vehicle ([3]; G4 0.3 mg/kg ip, 2× wk): −57%
Kidney glomerular cellularity, percent change vs vehicle ([4]; G3 0.3 mg/kg ip, 1× wk): −12%
Kidney glomerular necrosis, percent change vs vehicle ([4]; G3 0.3 mg/kg ip, 1× wk): 18%
Kidney glomerulosclerosis, percent change vs vehicle ([4]; G3 0.3 mg/kg ip, 1× wk): 8%
Kidney interstitial fibrosis, percent change vs vehicle ([4]; G3 0.3 mg/kg ip, 1× wk): −5%
Kidney interstitial infiltration, percent change vs vehicle ([4]; G3 0.3 mg/kg ip, 1× wk): −15%
Kidney tubular atrophy, percent change vs vehicle ([4]; G3 0.3 mg/kg ip, 1× wk): −6%
Kidney vasculitis, percent change vs vehicle ([4]; G3 0.3 mg/kg ip, 1× wk): −21%
p, interstitial infiltration (II) vs G7 Vehicle ([4]; G4 0.3 mg/kg 2× wk): p < 0.05
Kidney glomerular cellularity, percent change vs vehicle ([4]; G4 0.3 mg/kg ip, 2× wk): −21%
Kidney glomerular necrosis, percent change vs vehicle ([4]; G4 0.3 mg/kg ip, 2× wk): 3%
Kidney glomerulosclerosis, percent change vs vehicle ([4]; G4 0.3 mg/kg ip, 2× wk): −29%
Kidney interstitial fibrosis, percent change vs vehicle ([4]; G4 0.3 mg/kg ip, 2× wk): −22%
Kidney interstitial infiltration, percent change vs vehicle ([4]; G4 0.3 mg/kg ip, 2× wk): −44%
Kidney tubular atrophy, percent change vs vehicle ([4]; G4 0.3 mg/kg ip, 2× wk): −32%
Kidney vasculitis, percent change vs vehicle ([4]; G4 0.3 mg/kg ip, 2× wk): −14%
interstitial infiltration reduction vs vehicle ([4]; bortezomib treatment group (twice weekly dose)): 44%
decrease in renal histopathology score over several parameters vs vehicle [4]: 6-14%

CC(C)C[C@H](NC(=O)[C@@H](NC(=O)c1cccc(-c2ccccc2)n1)[C@@H](C)O)B(O)O [COMPOUND A, [(1R)-1-[[(2S,3R)-3-hydroxy-2-[6-phenyl-pyridine-2-carbonyl)amino]-1-oxobutyl]amino]-3-methylbutylboronic acid]
Urine AUC proteinuria, percent change vs vehicle ([1]; G1: 3 mg/kg iv, 1× wk): −60%
Urine AUC proteinuria, percent change vs vehicle ([1]; G2: 3 mg/kg iv, 2× wk): −70%
Urine AUC proteinuria, percent change vs vehicle ([1]; G3: 10 mg/kg po, 2× wk): −71%
total urine protein reduction relative to vehicle ([1]; Group 1): 60%
total urine protein reduction relative to vehicle ([1]; Group 2): 70%
total urine protein reduction relative to vehicle ([1]; Group 3): 71%
Urine AUC leukocytes, percent change vs vehicle ([2]; G1: 3 mg/kg iv, 1× wk): −96%
Urine AUC leukocytes, percent change vs vehicle ([2]; G2: 3 mg/kg iv, 2× wk): −94%
Urine AUC leukocytes, percent change vs vehicle ([2]; G3: 10 mg/kg po, 2× wk): −94%
Urine proteinuria AUC, percent change vs vehicle ([3]; G1 3 mg/kg ip, 1× wk): −61%
Urine proteinuria AUC, percent change vs vehicle ([3]; G2 3 mg/kg ip, 2× wk): −72%
proteinuria reduction compared to vehicle ([3]; Group 1: 3 mg/kg ip once per week): 61%
proteinuria reduction compared to vehicle ([3]; Group 2: 3 mg/kg ip twice weekly): 72%
p, glomerular cellularity (GC) vs G3 Bortezomib 0.3 mg/kg 1× wk ([4]; 3 mg/kg 1× wk): p < 0.01
p, glomerular cellularity (GC) vs G6 DEX 1.5 mg/kg 1× wk ([4]; 3 mg/kg 1× wk): p < 0.01
p, glomerular cellularity (GC) vs G7 Vehicle ([4]; 3 mg/kg 1× wk): p < 0.001
p, glomerular necrosis (GN) vs G3 Bortezomib 0.3 mg/kg 1× wk ([4]; 3 mg/kg 1× wk): p < 0.05
p, glomerular necrosis (GN) vs G6 DEX 1.5 mg/kg 1× wk ([4]; 3 mg/kg 1× wk): p < 0.01
p, glomerulosclerosis (GS) vs G3 Bortezomib 0.3 mg/kg 1× wk ([4]; 3 mg/kg 1× wk): p < 0.001
p, glomerulosclerosis (GS) vs G6 DEX 1.5 mg/kg 1× wk ([4]; 3 mg/kg 1× wk): p < 0.001
p, glomerulosclerosis (GS) vs G7 Vehicle ([4]; 3 mg/kg 1× wk): p < 0.01
p, interstitial fibrosis (IF) vs G3 Bortezomib 0.3 mg/kg 1× wk ([4]; 3 mg/kg 1× wk): p < 0.01
p, interstitial fibrosis (IF) vs G6 DEX 1.5 mg/kg 1× wk ([4]; 3 mg/kg 1× wk): p < 0.001
p, interstitial fibrosis (IF) vs G7 Vehicle ([4]; 3 mg/kg 1× wk): p < 0.01
p, interstitial infiltration (II) vs G6 DEX 1.5 mg/kg 1× wk ([4]; 3 mg/kg 1× wk): p < 0.01
p, interstitial infiltration (II) vs G7 Vehicle ([4]; 3 mg/kg 1× wk): p < 0.05
p, tubular atrophy (TA) vs G3 Bortezomib 0.3 mg/kg 1× wk ([4]; 3 mg/kg 1× wk): p < 0.001
p, tubular atrophy (TA) vs G6 DEX 1.5 mg/kg 1× wk ([4]; 3 mg/kg 1× wk): p < 0.001
p, tubular atrophy (TA) vs G7 Vehicle ([4]; 3 mg/kg 1× wk): p < 0.001
p, vasculitis (VA) vs G6 DEX 1.5 mg/kg 1× wk ([4]; 3 mg/kg 1× wk): p < 0.01
p, vasculitis (VA) vs G7 Vehicle ([4]; 3 mg/kg 1× wk): p < 0.01
p, glomerular cellularity (GC) vs G3 Bortezomib 0.3 mg/kg 1× wk ([4]; 3 mg/kg 2× wk): p < 0.01
p, glomerular cellularity (GC) vs G6 DEX 1.5 mg/kg 1× wk ([4]; 3 mg/kg 2× wk): p < 0.01
p, glomerular cellularity (GC) vs G7 Vehicle ([4]; 3 mg/kg 2× wk): p < 0.001
p, glomerular necrosis (GN) vs G3 Bortezomib 0.3 mg/kg 1× wk ([4]; 3 mg/kg 2× wk): p < 0.05
p, glomerular necrosis (GN) vs G6 DEX 1.5 mg/kg 1× wk ([4]; 3 mg/kg 2× wk): p < 0.01
p, glomerulosclerosis (GS) vs G3 Bortezomib 0.3 mg/kg 1× wk ([4]; 3 mg/kg 2× wk): p < 0.001
p, glomerulosclerosis (GS) vs G6 DEX 1.5 mg/kg 1× wk ([4]; 3 mg/kg 2× wk): p < 0.001
p, glomerulosclerosis (GS) vs G7 Vehicle ([4]; 3 mg/kg 2× wk): p < 0.01
p, interstitial fibrosis (IF) vs G3 Bortezomib 0.3 mg/kg 1× wk ([4]; 3 mg/kg 2× wk): p < 0.01
p, interstitial fibrosis (IF) vs G6 DEX 1.5 mg/kg 1× wk ([4]; 3 mg/kg 2× wk): p < 0.001
p, interstitial fibrosis (IF) vs G7 Vehicle ([4]; 3 mg/kg 2× wk): p < 0.01
p, interstitial infiltration (II) vs G6 DEX 1.5 mg/kg 1× wk ([4]; 3 mg/kg 2× wk): p < 0.01
p, interstitial infiltration (II) vs G7 Vehicle ([4]; 3 mg/kg 2× wk): p < 0.05
p, tubular atrophy (TA) vs G3 Bortezomib 0.3 mg/kg 1× wk ([4]; 3 mg/kg 2× wk): p < 0.01
p, tubular atrophy (TA) vs G6 DEX 1.5 mg/kg 1× wk ([4]; 3 mg/kg 2× wk): p < 0.001
p, tubular atrophy (TA) vs G7 Vehicle ([4]; 3 mg/kg 2× wk): p < 0.001
p, vasculitis (VA) vs G7 Vehicle ([4]; 3 mg/kg 2× wk): p < 0.05
glomerular cellularity reduction vs vehicle [4, 5]: ~50%
glomerulosclerosis reduction vs vehicle [4, 5]: ~53%
interstitial fibrosis reduction vs vehicle [4, 5]: ~55%
interstitial infiltration reduction vs vehicle [4, 5]: 43-46%
tubular atrophy reduction vs vehicle [4, 5]: 55-59%
vasculitis reduction vs vehicle [4, 5]: 51-55%
Kidney glomerular cellularity, percent change vs vehicle ([4]; G1 3 mg/kg ip, 1× wk): −48%
Kidney glomerular necrosis, percent change vs vehicle ([4]; G1 3 mg/kg ip, 1× wk): −29%
Kidney glomerulosclerosis, percent change vs vehicle ([4]; G1 3 mg/kg ip, 1× wk): −54%
Kidney interstitial fibrosis, percent change vs vehicle ([4]; G1 3 mg/kg ip, 1× wk): −56%
Kidney interstitial infiltration, percent change vs vehicle ([4]; G1 3 mg/kg ip, 1× wk): −46%
Kidney tubular atrophy, percent change vs vehicle ([4]; G1 3 mg/kg ip, 1× wk): −59%
Kidney vasculitis, percent change vs vehicle ([4]; G1 3 mg/kg ip, 1× wk): −55%
Kidney glomerular cellularity, percent change vs vehicle ([4]; G2 3 mg/kg ip, 2× wk): −50%
Kidney glomerular necrosis, percent change vs vehicle ([4]; G2 3 mg/kg ip, 2× wk): −29%
Kidney glomerulosclerosis, percent change vs vehicle ([4]; G2 3 mg/kg ip, 2× wk): −53%
Kidney interstitial fibrosis, percent change vs vehicle ([4]; G2 3 mg/kg ip, 2× wk): −55%
Kidney interstitial infiltration, percent change vs vehicle ([4]; G2 3 mg/kg ip, 2× wk): −43%
Kidney tubular atrophy, percent change vs vehicle ([4]; G2 3 mg/kg ip, 2× wk): −55%
Kidney vasculitis, percent change vs vehicle ([4]; G2 3 mg/kg ip, 2× wk): −51%
decrease in renal histopathology score over several parameters vs vehicle [4]: 45-55%
